Test results as given in patent US4581451A, “Preparation of di- and tri-substituted xanthine compounds” (priority 1980, dated 1986).

experiment: behavioural study in rats: anxiety induced by a new environment (rearings and movements); assay type: in vivo, male Sprague-Dawley rats; settings: Rattus norvegicus, 0.5 h; oral, sodium salt in solution, 30 min before test, 15 min count; S.N.: mean of two regression curves; S.A.: from rearings curve; read-out: ED 50
Source text: The xanthines obtained in accordance with the preceding Examples were the subject of a behavioural study in rats as a function of the anxiety induced by a new environment. In rats, anxiety is manifested by rearing the animal on its two hind paws, whilst locomotive activity is expressed by their movements.
A state of anxiety is induced by confronting "naive" male Sprague-Dawley (Iffa-Credo, France) rats weighing from 260 to 300 g with a new environment in the form of cages of Macrolon (30×25 cm) which are situated in a sound-proofed air-conditioned room (22° C./50% relative humidity).
The number of rearings and movements is automatically determined by means of infrared photoelectric cells which only emit electrical pulses for the active movements of the animal and not for its static movements, such as those of its head and tail, for reasons of reproducibility. These photoelectric cells scan the cages at two different levels so as to distinguish the standing-up movements from the other movements. The number of rearings and movements is counted by the two rows of photoelectric cells, memorised and read out using a printer in accordance with a pre-established program.
The tested compound in solution in the form of its sodium salt is orally administered by oesophagus probe (the reference administration being formed by 6 ml/kg of distilled water) 30 minutes before the animals are placed in the cages. The number of rearings and movements is determined during the 15 minutes after they have been put into the cages in relation to the effect generated by the reference administration.
The ED 50 dose (expressed in mg/kg), i.e. the quantity of substance required to bring about a 50% variation in the motive activity in relation to the reference administration, is determined from the development of the effects of the tested substances on the number of movements and rearings as a function of the progressive doses administered expressed as a percentage of the movements and rearings counted for the reference administration.
The gradients of the regression curves corresponding to the movements and to the rearings are compared by recording the value of the gradient of the movement curve on the abscissa (d) and the value of the gradient of the rearing curve on the ordinant (r) of a system of rectungular axes.
The ratio of the gradient of the movements to that of the rearings is also determined, enabling the specificity of effect of a given substance on the anxiety state to be assessed.
The effect of a substance is determined by its position relative to the curve d=r of gradient=1. The substances situated on this curve have a similar effect on the rearings and movements, being sedatives with a non-specific effect (S.N.). For these compounds, the ED 50 value quoted corresponds to the mean taken from the two regression curves.
These compounds are sedatives of anxiolytic character (S.A.). In this case, the ED 50 value is calculated from the regression curve of the rearings.

| Structure (SMILES) | ED50 [mg/kg] |
| --- | --- |
| C=CCn1c(=O)c2[nH]cnc2n(CCCC)c1=O [Example 2, 1-allyl-3-butyl xanthine] | 1.6 |
| C=CCn1c(=O)c2[nH]c(C)nc2n(CC(C)C)c1=O [Example 4, 1-allyl-3-isobutyl-8-methyl xanthine] | 0.25 |
| C=CCn1c(=O)c2[nH]c(C)nc2n(CCC(C)C)c1=O [Example 7, 1-allyl-3-isopentyl-8-methyl xanthine] | 1.03 |
| CCCCn1c(=O)n(C(C)C)c(=O)c2[nH]c(C)nc21 [Example 16, 1-isopropyl-3-butyl-8-methyl xanthine] | 1.76 |
| CCCCn1c(=O)n(CCC)c(=O)c2[nH]c(C)nc21 [Example 11, 1-propyl-3-butyl-8-methyl xanthine] | 0.35 |

same assay, conditions: sedative/anxiolytic class

| Structure (SMILES) | Effect |
| --- | --- |
| C=CCn1c(=O)c2[nH]c(C)nc2n(CC(C)C)c1=O [Example 4, 1-allyl-3-isobutyl-8-methyl xanthine] | S.N |

experiment: in vivo; settings: mouse, po, female, solution in DMSO, read-out: LD 50, mice female

| Structure (SMILES) | LD50 [mg/kg] |
| --- | --- |
| C=CCn1c(=O)c2[nH]c(C)nc2n(CC(C)C)c1=O [Example 4, 1-allyl-3-isobutyl-8-methyl xanthine] | 49 |
| CCCCn1c(=O)n(CCC)c(=O)c2[nH]c(C)nc21 [Example 11, 1-propyl-3-butyl-8-methyl xanthine] | 151 |

same assay, conditions: mouse, po, male, solution in DMSO, read-out: LD 50, mice male

| Structure (SMILES) | LD50 [mg/kg] |
| --- | --- |
| C=CCn1c(=O)c2[nH]c(C)nc2n(CC(C)C)c1=O [Example 4, 1-allyl-3-isobutyl-8-methyl xanthine] | 79 |
| CCCCn1c(=O)n(CCC)c(=O)c2[nH]c(C)nc21 [Example 11, 1-propyl-3-butyl-8-methyl xanthine] | 91 |

experiment: in vivo; settings: rat, po, female, solution in DMSO, read-out: LD 50, rats female
Source text: (b) Determination of the acute toxicity LD 50 in male and female rats in solution is DMSO (reference DMSO alone) in accordance with C.

| Structure (SMILES) | LD50 [mg/kg] |
| --- | --- |
| C=CCn1c(=O)c2[nH]cnc2n(CCCC)c1=O [Example 2, 1-allyl-3-butyl xanthine] | > 200 |
| C=CCn1c(=O)c2[nH]c(C)nc2n(CC(C)C)c1=O [Example 4, 1-allyl-3-isobutyl-8-methyl xanthine] | 17 |
| CCCCn1c(=O)n(CCC)c(=O)c2[nH]c(C)nc21 [Example 11, 1-propyl-3-butyl-8-methyl xanthine] | 15 |

same assay, conditions: rat, po, male, solution in DMSO, read-out: LD 50, rats male

| Structure (SMILES) | LD50 [mg/kg] |
| --- | --- |
| C=CCn1c(=O)c2[nH]cnc2n(CCCC)c1=O [Example 2, 1-allyl-3-butyl xanthine] | > 200 |
| C=CCn1c(=O)c2[nH]c(C)nc2n(CC(C)C)c1=O [Example 4, 1-allyl-3-isobutyl-8-methyl xanthine] | 23 |
| CCCCn1c(=O)n(CCC)c(=O)c2[nH]c(C)nc21 [Example 11, 1-propyl-3-butyl-8-methyl xanthine] | 25 |

experiment: base screening: diuretic in male rats; assay type: in vivo; settings: Rattus norvegicus, read-out: minimal effective dose producing a significant response, diuretic (c)
Source text: (c) diuretic in male rats, as determined in accordance with W. L. Lipschitz, Z Hadidian and A. Kerpcsar, JPET, Vol. 79, pages 97-110, 1943

| Structure (SMILES) | minimal effective dose [mg/kg] |
| --- | --- |
| C=CCn1c(=O)c2[nH]cnc2n(CCCC)c1=O [Example 2, 1-allyl-3-butyl xanthine] | 10 |
| C=CCn1c(=O)c2[nH]c(C)nc2n(CC(C)C)c1=O [Example 4, 1-allyl-3-isobutyl-8-methyl xanthine] | 20 |
| CCCCn1c(=O)n(CCC)c(=O)c2[nH]c(C)nc21 [Example 11, 1-propyl-3-butyl-8-methyl xanthine] | 0.25 |

experiment: base screening: anti-allergic in male and female rats; assay type: in vivo; settings: not given
Source text: (d) anti-allergic in male and female rats, as determined in accordance with J. Goose and A. M. J. N. Blair, Immunol., Vol. 16, pages 749-760, 1969

| Structure (SMILES) | minimal effective dose producing a significant response, anti-allergic (d) |
| --- | --- |
| CCCCn1c(=O)n(CCC)c(=O)c2[nH]c(C)nc21 [Example 11, 1-propyl-3-butyl-8-methyl xanthine] | no effect |

same assay, conditions: Rattus norvegicus, read-out: minimal effective dose producing a significant response, anti-allergic (d)

| Structure (SMILES) | minimal effective dose [mg/kg] |
| --- | --- |
| C=CCn1c(=O)c2[nH]cnc2n(CCCC)c1=O [Example 2, 1-allyl-3-butyl xanthine] | 10 |
| C=CCn1c(=O)c2[nH]c(C)nc2n(CC(C)C)c1=O [Example 4, 1-allyl-3-isobutyl-8-methyl xanthine] | 50 |

experiment: base screening: bronchodilatory in vitro; settings: not given
Source text: (e) bronchodilatory in vitro as determined in accordance with F. P. Luduena et al., Arch. int. Pharmacodyn, Vol. 111, pages 392-400, 1957

| Structure (SMILES) | minimal effective concentration producing a significant response, bronchodilatory (e) |
| --- | --- |
| C=CCn1c(=O)c2[nH]cnc2n(CCCC)c1=O [Example 2, 1-allyl-3-butyl xanthine] | 25 µg/mL |
| C=CCn1c(=O)c2[nH]c(C)nc2n(CC(C)C)c1=O [Example 4, 1-allyl-3-isobutyl-8-methyl xanthine] | no effect |
| CCCCn1c(=O)n(CCC)c(=O)c2[nH]c(C)nc21 [Example 11, 1-propyl-3-butyl-8-methyl xanthine] | 10 µg/mL |

experiment: base screening: anti-histamine in vitro; settings: not given
Source text: (f) anti-histamine in vitro as determined in accordance with R. Magnus, Arch f.d., ges. physiol., Vol. 102, pages 123-151, 1904.

| Structure (SMILES) | minimal effective concentration producing a significant response, anti-histamine (f) |
| --- | --- |
| C=CCn1c(=O)c2[nH]cnc2n(CCCC)c1=O [Example 2, 1-allyl-3-butyl xanthine] | 100 µg/mL |
| C=CCn1c(=O)c2[nH]c(C)nc2n(CC(C)C)c1=O [Example 4, 1-allyl-3-isobutyl-8-methyl xanthine] | no effect |
| CCCCn1c(=O)n(CCC)c(=O)c2[nH]c(C)nc21 [Example 11, 1-propyl-3-butyl-8-methyl xanthine] | 50 µg/mL |

experiment: catalepsy induced by haloperidol in rats; assay type: in vivo; settings: p.o.
Source text: (§1) The compounds of Examples 1, 4, 11 and 12 were subjected to behavioural tests in accordance with "predictability and specificity of behaviour screening tests for neuroleptics", P. Worms and K. G. Lloyd, […], Vol. 5, pages 445-450, 1979, comprising: […]

| Structure (SMILES) | catalepsy induced by haloperidol |
| --- | --- |
| C=CCn1c(=O)c2[nH]c(C)nc2n(CC(C)C)c1=O [Example 4, 1-allyl-3-isobutyl-8-methyl xanthine] | potentialisation at 1 mg/kg p.o. |
| CCCCn1c(=O)n(CCC)c(=O)c2[nH]c(C)nc21 [Example 11, 1-propyl-3-butyl-8-methyl xanthine] | potentialisation at 1 mg/kg p.o. |

experiment: analgesia induced by pentobarbital in mice; assay type: in vivo; settings: p.o.
Source text: as §1

| Structure (SMILES) | analgesia induced by pentobarbital |
| --- | --- |
| C=CCn1c(=O)c2[nH]c(C)nc2n(CC(C)C)c1=O [Example 4, 1-allyl-3-isobutyl-8-methyl xanthine] | potentialisation at 0.5 mg/kg p.o. |
| CCCCn1c(=O)n(CCC)c(=O)c2[nH]c(C)nc21 [Example 11, 1-propyl-3-butyl-8-methyl xanthine] | potentialisation at 0.5 mg/kg p.o. |

experiment: climbing behaviour induced by apomorphine in mice; assay type: in vivo; settings: p.o.
Source text: as §1

| Structure (SMILES) | climbing behaviour induced by apomorphine |
| --- | --- |
| C=CCn1c(=O)c2[nH]c(C)nc2n(CC(C)C)c1=O [Example 4, 1-allyl-3-isobutyl-8-methyl xanthine] | inhibition at 1 mg/kg p.o. |
| CCCCn1c(=O)n(CCC)c(=O)c2[nH]c(C)nc21 [Example 11, 1-propyl-3-butyl-8-methyl xanthine] | inhibition at 1 mg/kg p.o. |

experiment: stereotype behaviour induced by apomorphine in rats; assay type: in vivo; settings: p.o.
Source text: as §1

| Structure (SMILES) | stereotype behaviour induced by apomorphine |
| --- | --- |
| C=CCn1c(=O)c2[nH]c(C)nc2n(CC(C)C)c1=O [Example 4, 1-allyl-3-isobutyl-8-methyl xanthine] | no antagonism up to 8 mg/kg p.o. |
| CCCCn1c(=O)n(CCC)c(=O)c2[nH]c(C)nc21 [Example 11, 1-propyl-3-butyl-8-methyl xanthine] | no antagonism up to 8 mg/kg p.o. |

experiment: rectal temperature in mice; assay type: in vivo; settings: p.o.
Source text: as §1

| Structure (SMILES) | rectal temperature |
| --- | --- |
| C=CCn1c(=O)c2[nH]c(C)nc2n(CC(C)C)c1=O [Example 4, 1-allyl-3-isobutyl-8-methyl xanthine] | hypothermal effect at 2 mg/kg p.o. |
| CCCCn1c(=O)n(CCC)c(=O)c2[nH]c(C)nc21 [Example 11, 1-propyl-3-butyl-8-methyl xanthine] | hypothermal effect at 2 mg/kg p.o. |

experiment: hypomotility induced by amphetamine in rats; assay type: in vivo; settings: p.o.
Source text: as §1

| Structure (SMILES) | hypomotility induced by amphetamine |
| --- | --- |
| C=CCn1c(=O)c2[nH]c(C)nc2n(CC(C)C)c1=O [Example 4, 1-allyl-3-isobutyl-8-methyl xanthine] | antagonism at 0.5 mg/kg p.o. |
| CCCCn1c(=O)n(CCC)c(=O)c2[nH]c(C)nc21 [Example 11, 1-propyl-3-butyl-8-methyl xanthine] | antagonism at 0.5 mg/kg p.o. |
